Data from ChEMBL document CHEMBL1201861, “Genomics of Drug Sensitity in Cancer screening data, Wellcome Trust Sanger Institute”.

Assays:
Assay in all cases: cells
Format in all cases: functional, cell-based, Homo sapiens
LB647-SCLC = conditions: Homo sapiens, LB647-SCLC;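 also: cell growth inhibition, read out by a viability assay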
Description: SANGER: Inhibition of human LB647-SCLC cell growth in a cell viability assay.

GDM-1 = conditions: Homo sapiens, GDM-1;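 also: cell viability readout used to measure growth inhibition of human GDM-1 cells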
Description: SANGER: Inhibition of human GDM-1 cell growth in a cell viability assay.

IST-SL2 = conditions: Homo sapiens, IST-SL2;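 also: growth inhibition of human IST-SL2 cells, read out by a cell viability assay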
Description: SANGER: Inhibition of human IST-SL2 cell growth in a cell viability assay.

KARPAS-422 = conditions: Homo sapiens, KARPAS-422
Description: SANGER: Inhibition of human KARPAS-422 cell growth in a cell viability assay.

MHH-CALL-2 = conditions: Homo sapiens, MHH-CALL-2;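 also: growth inhibition of the cell line, read out in a cell viability assay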
Description: SANGER: Inhibition of human MHH-CALL-2 cell growth in a cell viability assay.

CHP-126 = conditions: Homo sapiens, CHP-126
Description: SANGER: Inhibition of human CHP-126 cell growth in a cell viability assay.

NCI-H1417 = conditions: Homo sapiens, NCI-H1417;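 also: human NCI-H1417 cells, growth inhibition determined with a cell viability readout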
Description: SANGER: Inhibition of human NCI-H1417 cell growth in a cell viability assay.

NCI-H2227 = conditions: Homo sapiens, NCI-H2227;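 also: growth inhibition of the human cell line, read out with a cell viability assay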
Description: SANGER: Inhibition of human NCI-H2227 cell growth in a cell viability assay.

Row | SMILES | IC50 (LB647-SCLC) [µM] | IC50 (GDM-1) [µM] | IC50 (IST-SL2) [µM] | IC50 (KARPAS-422) [µM] | IC50 (MHH-CALL-2) [µM] | IC50 (CHP-126) [µM] | IC50 (NCI-H1417) [µM] | IC50 (NCI-H2227) [µM]
1 | Cc1ccc(-c2c(C(=O)CCl)n(CCCO)c3ncnc(N)c23)cc1 | > 4 | > 4 | > 4 | > 4 | > 4 | > 4 | > 4 | 
2 | OCCCNc1cc(-c2ccnc(Nc3cccc(Cl)c3)n2)ccn1 | > 0.256 | > 0.256 | 0.0249 | 0.0572 | 0.0855 | 0.135 | > 0.256 | 
3 | N[C@@H](CSC(c1ccccc1)(c1ccccc1)c1ccccc1)C(=O)O [S-TRITYL-L-CYSTEINE] | > 5.12 | 2.49 | 2.26 | 1.2 | > 5.12 | > 5.12 | > 5.12 | 
4 | COc1cc(-c2nn([C@H]3CC[C@H](N4CCN(C(C)=O)CC4)CC3)c3ncnc(N)c23)ccc1NC(=O)c1cc2ccccc2n1C | 4.89 | > 5.12 | 1.16 | > 5.12 | > 5.12 | > 5.12 | > 5.12 | 
5 | COc1cc(N2CCN(C)CC2)ccc1Nc1ncc2c(n1)N(C)c1ccccc1C(=O)N2C | > 8 | > 8 | 3.82 | > 8 | > 8 | > 8 | > 8 | > 8
6 | C#Cc1cccc(Nc2ncnc3cc(OCCOC)c(OCCOC)cc23)c1 [ERLOTINIB] | > 2 | > 2 | > 2 | > 2 | > 2 | > 2 | > 2 | > 2
7 | COc1cc2ncn(-c3cc(OCc4ccccc4C(F)(F)F)c(C(N)=O)s3)c2cc1OC [GW843682X] | 0.0189 | 0.0508 | 0.112 | 0.21 | > 0.256 | > 0.256 | > 0.256 | 
